Tested on: OB-R
Test: p-Stat3 expression in rabbit endometrial cells (immunocytochemistry, Western blot)
Format: cell-based
Settings: for effect on basal expression of p-Stat3 / effect on leptin up-regulation of Stat3 phosphorylation: rESC and rEEC; for effect on basal expression of p-Stat3: Western blot, 3 to 300 nM; for effect on leptin up-regulation of Stat3 phosphorylation: peptides 3 to 300 nM, antibody 1-10 μg/ml
Protocol: Rabbit endometrial cells (5×10^5 cells/well) were cultured for 5-9 days in DMEM-MCDB105 (3:1) medium containing 10% fetal bovine serum (FBS), 5 μg/ml insulin, 1% amphopthericin B, 100 μg/ml streptomycin and 100 U/ml penicillin until confluent layers were obtained. The cells were washed twice with 100 mM phosphate saline buffer (PBS) −2% BSA (w/v), pH 7.2 and cultured for an additional 2 days in the same medium but without FBS (basal medium). This procedure was performed to reduce any effects of cytokines from FBS on the phosphorylation rate of Stat3 as well as the expression of other cytokines and their receptors. Cells were washed as described before and cultured in basal medium containing leptin (0-10 nM), OB-R antibody (1-20 μg/ml) and/or LPA-2 peptides (0-300 nM). Cultures were stopped at 24 h and the cells were used for immunocytochemistry, binding studies and western blot analysis. The conditioned media were collected, lyophilized and stored at −80° C. for ELISA determinations. Duplicate wells were run for each treatment and the experiments repeated at least three times with different cell preparations from different rabbits. Controls were the same cellular preparations cultured in basal medium containing non-specific goat IgGs and LPA-2Sc.
The rabbit endometrial cells were cultured as described above in duplicate on 8-well glass-bottom culture plates (Nalgene Nunc International, Naperville, Ill.) and fixed with methanol at −20° C. for 20 min for immunocytochemical studies. All the antibodies tested were diluted in PBS-2% BSA (w/v; buffer A).
Anti IL-1R tl (1 μg/ml), anti LIF-R (2 μg/ml), anti vimentin (1:50), anti cytokeratin (1:50) and anti p-Stat3 (1 μg/ml) antibodies were used to assess the expression of the respective antigens by rEEC and rESC cultures. After incubation with primary antibodies the cells were incubated with a streptavidin-biotin-alkaline phosphatase system according to the manufacturer directions (Vectastain, ABC-AP kit, Vector Laboratories, Burlingame, Calif.) and counter-stained with hematoxylin (Dako). Negative controls included cell preparations in which the primary antibodies were substituted by irrelevant species matched IgGs.
After culture in the presence of leptin, LPAs or antibodies, the endometrial cells were washed with ice-cold PBS and lysed by homogenization on ice with lysis buffer [[…] Tris, pH 7.4, containing 137 nM NaCl, 2 mM EDTA, 10% glycerol, 50 mM β-glycerophosphate, 50 nM NaF, 1% Nonidet P-40, 2 mM phenyl-methylsulfonyl fluoride, 2 mM sodium orthovanadate, 100 μM antipain, 0.1 mg/ml trypsin inhibitor and protease cocktail inhibitor 1:50 (Sigma)]. Cellular lysates were centrifuged at 24000 g at 4° C. for 10 min. Protein concentrations were determined using the Bradford protein assay (BioRad Laboratories Inc., Hercules, Calif.).
Protein extracts from cell lysates were combined (1:1) with Laemmli buffer (2× concentrated) and 10 μg of proteins were loaded per lane on 7.5% (for p-Stat3, IL-1R tl and LIF-R) and 10% (for OB-R) SDS-PAGE gels. Electrophoresis was performed at 65 V for 1-1.5 h (BioRad, electrophoresis apparatus). Electroblotting onto 0.2 μm nitrocellulose membranes was performed at 22V overnight at 4° C. in 48 nM Tris-39 nM glycine buffer containing 0.037% SDS and 20% methanol. […]

Substance: SRNVIQISNDLENLRDLLHVLAFSKS [LPA-2, 26 amino acid peptide, residues 70-95 of helix III of the human leptin molecule; leptin peptide antagonist]
- effect on basal expression of p-Stat3: effectively inhibited the basal expression of p-Stat3
- effect on leptin up-regulation of Stat3 phosphorylation (leptin 3 nM): significantly inhibits the leptin up-regulation of Stat3 phosphorylation

Substance: leptin: human recombinant leptin (R&D Systems), OB-R ligand used as stimulus
- p-Stat3 expression after leptin (rESC, immunocytochemistry, leptin 3 nM): up-regulated

Substance: VAEVLNRSDLIQRISFSLDLNNSKLH [LPA-2Sc, scrambled version of LPA-2, negative control, reference compound]
- effect on basal expression of p-Stat3: No inhibitory effect on p-Stat3 expression
- effect on leptin up-regulation of Stat3 phosphorylation (leptin 3 nM): not observed

Source: patent US8058228B2, “Leptin peptide antagonists” (Boston Biomedical Research Institute, priority 2004, dated 2011)
